Test results as given in patent US20230242552A1, “Nitrogen-Containing Heterocyclic Compound, Preparation Method Therefor and Use Thereof” (280 Bio, Inc, priority 2022, published 2023).

Key:
[1] = system: AGS (gastric cancer cell line with KRAS G12D mutation); test: Proliferation inhibition measured by CTG, AGS; type: cell-based; details: 120 h, CellTiter Glo, 120 hours incubation
Procedure: (§1) NCI-H358 is a human non-small cell lung cancer cell line with KRAS G12C mutation; AGS is a gastric cancer cell line with KRAS G12D mutation; SW480 is a colon cancer cell lines with KRAS G12V mutation; A375 is a wild type malignant melanoma cell line. The proliferation inhibitory effect of the compounds on various mutations was evaluated by determining the proliferation inhibitory activity of the compounds on these cell lines.
(§2) The assay was conducted on either 384-well plates or 96-well plates. The procedures are as follows:
(§3) The cell suspensions were added to 384- or 96-well plates (384-well plate: 40 μL; 96-well plate: 100 μL) except for peripheral wells. The plates were incubated in a carbon dioxide incubator overnight. Prepared compounds (10 concentration gradients by serial 3-fold dilution) were added to the wells. The cell plates were incubated in a carbon dioxide incubator for 120 hours. CellTiter Glo reagent (384 well plate: 25 μL; 96 well plate: 100 μL) was added to the 384- or 96-well plates. The plates were shaken for 10 minutes away from light, and incubated for 10 minutes. The plates were read by EnVision system. Inhibition curves were plotted using XLFit and IC50 values were calculated. “IC50>10 μM” is denoted by “*”, “10 μM≥IC50>1 μM” is denoted by […] is denoted by “***”, “---” means no data.

[2] = system: A375 (wild type malignant melanoma cell line); test: Proliferation inhibition measured by CTG, A375; type: cell-based; details: Homo sapiens, A-375, 120 h, CellTiter Glo, 120 hours incubation
Procedure: as §1, §2, §3

[3] = system: SW480 (colon cancer cell lines with KRAS G12V mutation); test: Proliferation inhibition measured by CTG, SW480; type: cell-based; details: Homo sapiens, SW480, 120 h, CellTiter Glo, 120 hours incubation
Procedure: as §1, §2, §3

[4] = system: NCI-H358 (KRAS G12C mutation); test: Proliferation inhibition measured by CTG, NCI-H358; type: cell-based, human; details: Homo sapiens, NCI-H358, 120 h, CellTiter Glo, 120 hours incubation
Procedure: as §1, §2, §3

| SMILES | IC50 [1] [nM] | IC50 [2] [nM] | IC50 [3] [nM] | IC50 [4] [nM] |
| --- | --- | --- | --- | --- |
| C[C@H]1Cc2cncc(F)c2CN1c1nc(OC[C@@H]2CN(C)CCN2C)nc2c1CCN(c1cccc3cccc(F)c13)C2 [Compound 25] | 1000 to 10000 | 1000 to 10000 | 1000 to 10000 | 1000 to 10000 |
| C[C@@H](CN(C)C)Oc1nc2c(c(N3Cc4c(F)cncc4C[C@@H]3C)n1)CCN(c1cccc3cccc(F)c13)C2 [Compound 26] | 1000 to 10000 | 1000 to 10000 | 1000 to 10000 | 1000 to 10000 |
| C[C@@H]1Cc2cncc(F)c2CN1c1nc(OC[C@@H]2CCCN2C)nc2cc(-c3ccc(F)c4sc(N)nc34)ccc12 [Compound 27] | ≤ 1000 | ≤ 1000 | ≤ 1000 | ≤ 1000 |
| C[C@@H]1Cc2cncc(F)c2CN1c1nc(OC[C@@H]2CCCCN2C)nc2c1CCN(c1cccc3cccc(F)c13)C2 [Compound 28] | ≤ 1000 | ≤ 1000 | ≤ 1000 | ≤ 1000 |
| C[C@@H]1Cc2cncc(F)c2CN1c1nc(O[C@@H](C)CN(C)C)nc2c1CCN(c1cccc3cccc(F)c13)C2 [Compound 29] | ≤ 1000 | 1000 to 10000 | ≤ 1000 | ≤ 1000 |
| C[C@@H]1Cc2cncc(F)c2CN1c1nc(OC[C@H]2CCCCN2C)nc2c1CCN(c1cccc3cccc(F)c13)C2 [Compound 30] | ≤ 1000 | ≤ 1000 | ≤ 1000 | ≤ 1000 |
| C[C@@H]1Cc2cncc(F)c2CN1c1nc(OC[C@H]2CCCN2C)nc2c1CCN(c1cccc3cccc(F)c13)C2 [Compound 31] | ≤ 1000 | ≤ 1000 | ≤ 1000 | ≤ 1000 |
| C[C@@H]1Cc2cncc(F)c2CN1c1nc(OC[C@@H]2CCCN2C)nc2c1CCN(c1cccc3cccnc13)C2 [Compound 32] | ≤ 1000 | ≤ 1000 | ≤ 1000 | ≤ 1000 |
| C[C@@H]1Cc2cncc(F)c2CN1c1nc(OC[C@@H]2CCCN2C)nc2cc(-c3cccc4cccnc34)ccc12 [Compound 33] | ≤ 1000 | ≤ 1000 | ≤ 1000 | ≤ 1000 |
